The compounds below were run against PI3Kα (Homo sapiens, UniProt P42336, H1047R) (assay: ADP-Glo IC50 assay). Conditions: class symbols; key not given.
PI3Kα, sequence (P42336 whole entry H1047R): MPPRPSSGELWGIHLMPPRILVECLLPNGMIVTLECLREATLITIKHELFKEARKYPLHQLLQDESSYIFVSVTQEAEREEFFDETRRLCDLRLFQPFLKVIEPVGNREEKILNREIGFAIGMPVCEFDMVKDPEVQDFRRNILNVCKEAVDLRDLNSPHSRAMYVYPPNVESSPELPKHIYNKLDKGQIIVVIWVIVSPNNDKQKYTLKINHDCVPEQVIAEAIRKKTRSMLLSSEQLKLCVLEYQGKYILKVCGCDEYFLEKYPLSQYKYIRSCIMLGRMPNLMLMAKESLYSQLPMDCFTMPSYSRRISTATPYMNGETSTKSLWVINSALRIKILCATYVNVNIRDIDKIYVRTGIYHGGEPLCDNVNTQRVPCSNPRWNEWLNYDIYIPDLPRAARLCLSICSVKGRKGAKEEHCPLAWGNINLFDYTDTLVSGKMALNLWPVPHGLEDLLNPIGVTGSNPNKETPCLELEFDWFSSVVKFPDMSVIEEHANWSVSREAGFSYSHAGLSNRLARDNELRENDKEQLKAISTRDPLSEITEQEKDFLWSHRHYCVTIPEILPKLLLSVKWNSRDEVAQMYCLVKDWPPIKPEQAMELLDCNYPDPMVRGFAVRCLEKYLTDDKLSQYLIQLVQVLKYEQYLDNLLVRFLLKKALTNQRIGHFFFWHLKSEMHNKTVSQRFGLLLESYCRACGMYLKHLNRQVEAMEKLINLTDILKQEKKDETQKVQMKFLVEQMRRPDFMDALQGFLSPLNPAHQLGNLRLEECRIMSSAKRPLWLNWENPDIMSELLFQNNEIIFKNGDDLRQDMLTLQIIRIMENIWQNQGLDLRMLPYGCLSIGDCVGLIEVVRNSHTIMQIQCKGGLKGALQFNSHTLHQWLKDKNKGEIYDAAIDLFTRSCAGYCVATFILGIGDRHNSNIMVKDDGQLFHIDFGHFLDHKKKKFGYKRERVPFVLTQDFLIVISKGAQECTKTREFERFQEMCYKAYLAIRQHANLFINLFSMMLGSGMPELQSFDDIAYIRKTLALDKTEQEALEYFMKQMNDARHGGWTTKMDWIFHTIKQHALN
PI3Kα, sequence (P27986 whole entry partner): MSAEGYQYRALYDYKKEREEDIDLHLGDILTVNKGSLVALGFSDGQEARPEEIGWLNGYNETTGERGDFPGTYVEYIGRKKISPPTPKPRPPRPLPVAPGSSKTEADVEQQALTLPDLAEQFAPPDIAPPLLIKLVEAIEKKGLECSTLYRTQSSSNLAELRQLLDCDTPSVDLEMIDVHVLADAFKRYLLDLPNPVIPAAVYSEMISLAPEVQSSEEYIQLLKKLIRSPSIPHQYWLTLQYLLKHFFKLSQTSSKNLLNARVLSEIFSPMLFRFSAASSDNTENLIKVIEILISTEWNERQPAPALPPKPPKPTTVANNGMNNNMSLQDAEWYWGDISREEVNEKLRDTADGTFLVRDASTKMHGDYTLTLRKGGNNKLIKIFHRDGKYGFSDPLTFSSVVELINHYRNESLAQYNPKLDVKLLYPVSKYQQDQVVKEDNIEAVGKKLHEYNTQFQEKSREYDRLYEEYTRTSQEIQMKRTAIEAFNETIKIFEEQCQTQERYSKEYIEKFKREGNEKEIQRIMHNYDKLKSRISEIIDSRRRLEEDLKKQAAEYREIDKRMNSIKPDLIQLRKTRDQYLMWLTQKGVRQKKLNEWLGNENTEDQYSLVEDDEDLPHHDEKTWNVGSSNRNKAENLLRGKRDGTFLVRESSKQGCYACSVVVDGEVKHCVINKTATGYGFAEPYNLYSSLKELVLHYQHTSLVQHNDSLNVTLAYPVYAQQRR
Assay type: biochemical
O=C(O)CCCCCCCCCNC(=O)c1cc(NC(=O)c2cc(F)cc(C(F)(F)F)c2)c2c(c1)C(=O)N[C@H]2c1cc(F)ccc1Cl [Example I-86] was tested, and the IC50 was 1000 to 10000 nM.
Cc1ccccc1Nc1ncc(C(=O)Nc2ccc(N3CCN(c4ccc5c(c4)C(=O)N(C4CCC(=O)NC4=O)C5=O)CC3)cc2)cc1NC(=O)c1csc2ccccc12 (centres unmarked) [Example I-55] was tested, and the IC50 was 100 to 500 nM.
Compound O=C1CCC(N2C(=O)c3ccc(NCCCCNC(=O)c4cc(NC(=O)c5cc(F)cc(C(F)(F)F)c5)c5c(c4)C(=O)N[C@H]5c4cc(F)ccc4Cl)cc3C2=O)C(=O)N1 (some centres unmarked) [Example I-100] has an IC50 of less than 100 nM.
O=C1CCC(N2C(=O)c3ccc(NCCCCCCCNC(=O)c4cnc(Nc5cc(F)ccc5Cl)c(NC(=O)c5csc6ccccc56)c4)cc3C2=O)C(=O)N1 (centres unmarked) [Example I-69] gave an IC50 of 100 to 500 nM.
Cc1ccccc1Nc1ncc(C(=O)NCCCCCCNc2cccc3c2C(=O)N(C2CCC(=O)NC2=O)C3=O)cc1NC(=O)c1csc2ccccc12 (centres unmarked) [Example I-59] was tested, and the IC50 was 500 to 1000 nM.
With Cc1ccccc1Nc1ncc(C(=O)N[C@H](CCC(=O)N[C@H](C(=O)N2C[C@H](O)C[C@H]2C(=O)NCc2ccc(-c3scnc3C)cc2)C(C)(C)C)C(O)O)cc1NC(=O)c1csc2ccccc12 [Example I-109] the IC50 was 1000 to 10000 nM.
Compound Cc1ccccc1Nc1ncc(C(=O)NCCOCCOCCOCCC(=O)NCc2ccc3c(c2)CN(C2CCC(=O)NC2=O)C3=O)cc1NC(=O)c1csc2ccccc12 (centres unmarked) [Example I-26] has an IC50 of 1000 to 10000 nM.
With Cc1cc([C@H](C)Nc2ccccc2C(=O)O)c2oc(N3CCN(C(=O)CCCCCNc4ccc5c(c4)C(=O)N(C4CCC(=O)NC4=O)C5=O)CC3)cc(=O)c2c1 (some centres unmarked) [Example I-128] the IC50 was 1000 to 10000 nM.
In the case of Cc1ccccc1Nc1ncc(C(=O)NCCCCCCC(=O)NCc2ccc3c(c2)CN(C2CCC(=O)NC2=O)C3=O)cc1NC(=O)c1csc2ccccc12 (centres unmarked) [Example I-19], the IC50 is reported as 100 to 500 nM.
Work on Cc1ccccc1Nc1ncc(C(=O)NCCCNC(=O)c2ccc3c(c2)CN(C2CCC(=O)NC2=O)C3=O)cc1NC(=O)c1csc2ccccc12 (centres unmarked) [Example I-61] yielded an IC50 of 100 to 500 nM.
With Cc1ncsc1-c1ccc(CNC(=O)[C@@H]2C[C@@H](O)CN2C(=O)[C@@H](NC(=O)CCCCCCCCCNC(=O)c2cc(NC(=O)c3nsc4ccccc34)c3n2CC(=O)N[C@H]3c2cc(F)ccc2Cl)C(C)(C)C)cc1 [Example I-105] the IC50 was 500 to 1000 nM.
O=C1CCC(N2Cc3cc(C#CCNC(=O)c4cc(NC(=O)c5cc(F)cc(C(F)(F)F)c5)c5c(c4)C(=O)N[C@@H]5c4cc(F)ccc4Cl)ccc3C2=O)C(=O)N1 (some centres unmarked) [Example I-102] showed an IC50 of less than 100 nM.
With Cc1ccccc1Nc1ncc(C(=O)NCCCNc2ccc3c(c2)C(=O)N(C2CCC(=O)NC2=O)C3=O)cc1NC(=O)c1csc2ccccc12 (centres unmarked) [Example I-56] the IC50 was less than 100 nM.
Compound Cc1ccccc1Nc1ncc(C(=O)NCCOCCOCCOCCOCCOCCOCCC(=O)N[C@H](C(=O)N2C[C@H](O)C[C@H]2C(=O)N[C@@H](C)c2ccc(-c3scnc3C)cc2)C(C)(C)C)cc1NC(=O)c1csc2ccccc12 [Example I-33] has an IC50 of 1000 to 10000 nM.
O=C1CCC(N2Cc3cc(C(=O)NCCCCCCCCCNC(=O)c4cnc(Nc5cc(F)ccc5Cl)c(NC(=O)c5csc6ccccc56)c4)ccc3C2=O)C(=O)N1 (centres unmarked) [Example I-34] gave an IC50 of 500 to 1000 nM.
With O=C1CCC(N2C(=O)c3ccc(NCCCCCNC(=O)c4cc(NC(=O)c5cc(F)cc(C(F)(F)F)c5)c5c(c4)C(=O)N[C@H]5c4cc(F)ccc4Cl)cc3C2=O)C(=O)N1 (some centres unmarked) [Example I-85] the IC50 was less than 100 nM.
O=C(CCCCCCCNC(=O)c1cnc(Nc2cc(F)ccc2Cl)c(NC(=O)c2csc3ccccc23)c1)NCc1ccc2c(c1)CN(C1CCC(=O)NC1=O)C2=O (centres unmarked) [Example I-41] showed an IC50 of 100 to 500 nM.
O=C1CCC(N2C(=O)c3ccc(NCCCNC(=O)c4cc(NC(=O)c5cc(F)cc(C(F)(F)F)c5)c5c(c4)C(=O)N[C@@H]5c4cc(F)ccc4Cl)cc3C2=O)C(=O)N1 (some centres unmarked) [Example I-96] showed an IC50 of 100 to 500 nM.
NC(=O)CCCCCCCCCNC(=O)c1cnc(Nc2cc(F)ccc2Cl)c(NC(=O)c2csc3ccccc23)c1 [Example I-68] gave an IC50 of 100 to 500 nM.
With O=C1CCC(N2C(=O)c3ccc(NCCOCCOCCOCCOCCOCCOCCOCCOCCOCCOCCOCCOCCNC(=O)c4cc(NC(=O)c5cc(F)cc(C(F)(F)F)c5)c5c(c4)C(=O)N[C@@H]5c4cc(F)ccc4Cl)cc3C2=O)C(=O)N1 (some centres unmarked) [Example I-151] the IC50 was 1000 to 10000 nM.
O=C1CCC(N2C(=O)c3ccc(NCCCCNC(=O)c4cnc(Nc5cc(F)ccc5Cl)c(NC(=O)c5csc6ccccc56)c4)cc3C2=O)C(=O)N1 (centres unmarked) [Example I-97] gave an IC50 of 100 to 500 nM.
Work on Cc1ccccc1Nc1ncc(C(=O)NCCCCCC(=O)NCc2ccc3c(c2)C(=O)N(C2CCC(=O)NC2=O)C3)cc1NC(=O)c1csc2ccccc12 (centres unmarked) [Example I-58] yielded an IC50 of 100 to 500 nM.
With Cc1ccccc1Nc1ncc(C(=O)NCCCC[C@H](N)C(=O)N[C@H](C(=O)N2C[C@H](O)C[C@H]2C(=O)NCc2ccc(-c3scnc3C)cc2)C(C)(C)C)cc1NC(=O)c1csc2ccccc12 [Example I-74] the IC50 was 1000 to 10000 nM.
Cc1ncsc1-c1ccc([C@H](C)NC(=O)[C@@H]2C[C@@H](O)CN2C(=O)[C@@H](NC(=O)CCCCCCCCCNC(=O)c2cc(NC(=O)c3cc(F)cc(C(F)(F)F)c3)c3c(c2)C(=O)N[C@@H]3c2cc(F)ccc2Cl)C(C)(C)C)cc1 [Example I-81] gave an IC50 of 100 to 500 nM.
Compound O=C1CCC(N2Cc3cc(C(=O)NCCCCCCCNC(=O)c4cnc(Nc5cc(F)ccc5Cl)c(NC(=O)c5csc6ccccc56)c4)ccc3C2=O)C(=O)N1 (centres unmarked) [Example I-66] has an IC50 of 100 to 500 nM.
Cc1cc([C@@H](C)Nc2ccccc2C(=O)O)c2oc(N3CCN(C(=O)CCNc4cccc5c4C(=O)N(C4CCC(=O)NC4=O)C5=O)CC3)cc(=O)c2c1 (some centres unmarked) [Example I-135] showed an IC50 of 500 to 1000 nM.
Cc1ccccc1Nc1ncc(C(=O)NCCOCCOCCC(=O)N[C@H](C(=O)N2C[C@H](O)C[C@H]2C(=O)NCc2ccc(-c3scnc3C)cc2)C(C)(C)C)cc1NC(=O)c1csc2ccccc12 [Example I-37] gave an IC50 of 1000 to 10000 nM.
For O=C1CCC(N2Cc3cc(C#CCNC(=O)c4cc(NC(=O)c5cc(F)cc(C(F)(F)F)c5)c5c(c4)C(=O)N[C@H]5c4cc(F)ccc4Cl)ccc3C2=O)C(=O)N1 (some centres unmarked) [Example I-110], the IC50 was less than 100 nM.
Compound Cc1cc([C@H](C)Nc2ccccc2C(=O)O)c2oc(N3CCN(C(=O)CCCCCCNc4ccc5c(c4)C(=O)N(C4CCC(=O)NC4=O)C5=O)CC3)cc(=O)c2c1 (some centres unmarked) [Example I-129] has an IC50 of 1000 to 10000 nM.
O=C1CCC(N2Cc3cc(C(=O)NCCCCCCCCNC(=O)c4cc(NC(=O)c5cccc(C(F)(F)F)c5)c5c(c4)C(=O)N[C@@H]5c4cc(F)ccc4Cl)ccc3C2=O)C(=O)N1 (some centres unmarked) [Example I-150] showed an IC50 of 1000 to 10000 nM.
Compound Cc1cc([C@@H](C)Nc2ccccc2C(=O)O)c2oc(N3CCN(C(=O)CCCCCNc4ccc5c(c4)C(=O)N(C4CCC(=O)NC4=O)C5=O)CC3)cc(=O)c2c1 (some centres unmarked) [Example I-132] has an IC50 of 500 to 1000 nM.
For O=C1CCC(N2C(=O)c3ccc(NCCCCCNC(=O)c4cc(NC(=O)c5cc(F)cc(C(F)(F)F)c5)c5c(c4)C(=O)N[C@@H]5c4cc(F)ccc4Cl)cc3C2=O)C(=O)N1 (some centres unmarked) [Example I-75], the IC50 was 500 to 1000 nM.
O=C1CCC(N2C(=O)c3ccc(NCCCCCCCNC(=O)c4cc(NC(=O)c5cc(F)cc(C(F)(F)F)c5)c5c(c4)C(=O)N[C@H]5c4cc(F)ccc4Cl)cc3C2=O)C(=O)N1 (some centres unmarked) [Example I-90] was tested, and the IC50 was less than 100 nM.
O=C1CCC(N2Cc3cc(C(=O)NCCCCCCCCNC(=O)c4cc(NC(=O)c5cccc(C(F)(F)F)c5)c5c(c4)C(=O)N[C@H]5c4cc(F)ccc4Cl)ccc3C2=O)C(=O)N1 (some centres unmarked) [Example I-158] gave an IC50 of less than 100 nM.
For O=C1CCC(N2Cc3cc(C(=O)NCCCCCCCCCNC(=O)c4cc(NC(=O)c5cccc(F)c5)c5c(c4)C(=O)N[C@H]5c4cc(F)ccc4Cl)ccc3C2=O)C(=O)N1 (some centres unmarked) [Example I-160], the IC50 was 100 to 500 nM.
Compound Cc1cc([C@@H](C)Nc2ccccc2C(=O)O)c2oc(N3CCN(C(=O)CCOCCOCCNC(=O)c4cnc(Nc5ccccc5C)c(NC(=O)c5csc6ccccc56)c4)CC3)cc(=O)c2c1 [Example I-125] has an IC50 of less than 100 nM.
Cc1ccccc1Nc1ncc(C(=O)NCCOCCOCCC(=O)N[C@H](C(=O)N2C[C@H](O)C[C@H]2C(=O)N[C@@H](C)c2ccc(-c3scnc3C)cc2)C(C)(C)C)cc1NC(=O)c1csc2ccccc12 [Example I-40] gave an IC50 of 1000 to 10000 nM.
Cc1ccccc1Nc1ncc(C(=O)NCCCC(=O)N[C@H](C(=O)N2C[C@H](O)C[C@H]2C(=O)N[C@@H](C)c2ccc(-c3scnc3C)cc2)C(C)(C)C)cc1NC(=O)c1csc2ccccc12 [Example I-57] was tested, and the IC50 was 500 to 1000 nM.
Work on Cc1cc([C@@H](C)Nc2ccccc2C(=O)O)c2oc(N3CCN(C(=O)CCC(=O)NCc4ccc5c(c4)C(=O)N(C4CCC(=O)NC4=O)C5)CC3)cc(=O)c2c1 (some centres unmarked) [Example I-149] yielded an IC50 of 1000 to 10000 nM.
With O=C1CCC(N2Cc3cc(C(=O)NCCOCCOCCOCCOCCOCCOCCOCCOCCOCCOCCOCCOCCNC(=O)c4cc(NC(=O)c5cc(F)cc(C(F)(F)F)c5)c5c(c4)C(=O)N[C@@H]5c4cc(F)ccc4Cl)ccc3C2=O)C(=O)N1 (some centres unmarked) [Example I-153] the IC50 was 1000 to 10000 nM.
Cc1ncsc1-c1ccc(CNC(=O)[C@@H]2C[C@@H](O)CN2C(=O)[C@@H](NC(=O)CCCCCCCCCNC(=O)c2cnc(Nc3cc(F)ccc3Cl)c(NC(=O)c3csc4ccccc34)c2)C(C)(C)C)cc1 [Example I-45] showed an IC50 of 100 to 500 nM.
For O=C1CCC(N2Cc3cc(C(=O)NCCCCCCCCCNC(=O)c4cc(NC(=O)c5nsc6ccccc56)c5n4CC(=O)N[C@@H]5c4cc(F)ccc4Cl)ccc3C2=O)C(=O)N1 (some centres unmarked) [Example I-106], the IC50 was less than 100 nM.
Work on O=C1CCC(N2C(=O)c3ccc(NCCOCCOCCOCCOCCOCCOCCOCCOCCOCCOCCOCCOCCNC(=O)c4cc(NC(=O)c5cc(F)cc(C(F)(F)F)c5)c5c(c4)C(=O)N[C@H]5c4cc(F)ccc4Cl)cc3C2=O)C(=O)N1 (some centres unmarked) [Example I-156] yielded an IC50 of less than 100 nM.
Work on Cc1ccccc1Nc1ncc(C(=O)NCCCCC(=O)N[C@H](C(=O)N2C[C@H](O)C[C@H]2C(=O)N[C@@H](C)c2ccc(-c3scnc3C)cc2)C(C)(C)C)cc1NC(=O)c1csc2ccccc12 [Example I-65] yielded an IC50 of 500 to 1000 nM.
In the case of O=C1CCC(N2Cc3cc(C(=O)NCCCCCCCCCNC(=O)c4cc(NC(=O)c5cccc(F)c5)c5c(c4)C(=O)N[C@@H]5c4cc(F)ccc4Cl)ccc3C2=O)C(=O)N1 (some centres unmarked) [Example I-161], the IC50 is reported as 1000 to 10000 nM.
O=C(O)CCCCCCCCCNC(=O)c1cc(NC(=O)c2cc(F)cc(C(F)(F)F)c2)c2c(c1)C(=O)N[C@@H]2c1cc(F)ccc1Cl [Example I-76] showed an IC50 of less than 100 nM.
O=C1CCC(N2Cc3cc(C#CCNC(=O)c4cnc(Nc5cc(F)ccc5Cl)c(NC(=O)c5csc6ccccc56)c4)ccc3C2=O)C(=O)N1 (centres unmarked) [Example I-95] was tested, and the IC50 was less than 100 nM.
